This note sets out measurements from publication PMC9127493 (Signal Transduction and Targeted Therapy, 2022).

The test system of one assay is SARS-CoV-2 variant Beta. Put plainly: microbe, parasite or virus in culture. It counts as cell-based. Conditions: Severe acute respiratory syndrome coronavirus 2; n = 6.
Assay [1] concerns SARS-CoV-2 variant Omicron. Put plainly: microbe, parasite or virus in culture. It counts as cell-based. Conditions: Severe acute respiratory syndrome coronavirus 2; n = 6.
In a further assay the test system is SARS-CoV-2 variant Delta. Put plainly: microbe, parasite or virus in culture. It counts as cell-based. As to conditions: Severe acute respiratory syndrome coronavirus 2; n = 6.
The subject of a further assay is Omicron variant. The experiment in a line: Cytopathic effect (CPE) inhibition assay in Vero E6 cells. The class given is cell-based, SARS-CoV-2.
A further assay concerns SARS-CoV-2 variant Alpha. Put plainly: microbe, parasite or virus in culture. The class given is cell-based. Conditions: Severe acute respiratory syndrome coronavirus 2; n = 6.
The test system of assay [2] is four SARS-CoV-2 variants of concern (VOCs), including Alpha, Beta, Delta and Omicron. It counts as cell-based. As to conditions: at 200 nM.

Usually EC50 stands for the concentration that produces a half-maximal response. The low end stands for a more potent agent, the high end for a less potent agent. `Cc1cccc(/C=N/Nc2cc(N3CCOCC3)nc(OCCc3ccccn3)n2)c1` [Apilimod]: the EC50 (with SARS-CoV-2 variant Beta; in assay [1]; in the assay with SARS-CoV-2 variant Delta; with SARS-CoV-2 variant Alpha) was less than 6.9 nM throughout. Further, the “rescue of cytopathic effect” value in the assay on Omicron variant is reported as “significantly rescued the cytopathic effects”.

Take `COc1ccc(C(=O)Nc2cccc(C(F)(F)F)c2)cc1Nc1nc(-c2cccnc2)c2[nH]ccc2n1` [XMU-MP-7]: the EC50 with SARS-CoV-2 variant Beta is 12.4 nM; in assay [1], less than 6.9 nM; in the assay with SARS-CoV-2 variant Delta, less than 6.9 nM; in the assay with SARS-CoV-2 variant Alpha it was less than 6.9 nM. In addition, in the assay with Omicron variant, the “rescue of cytopathic effect” value is reported as “significantly rescued the cytopathic effects”. Further, the viral inhibition result in assay [2] was “complete viral inhibition”.

Turning to `CCC(CC)COC(=O)[C@H](C)N[P@](=O)(OC[C@H]1O[C@@](C#N)(c2ccc3c(N)ncnn23)[C@H](O)[C@@H]1O)Oc1ccccc1` [Remdesivir], the EC50 in the assay with SARS-CoV-2 variant Beta stood at 495 nM; in assay [1], 615 nM; in the assay with SARS-CoV-2 variant Delta, 938 nM; in the assay with SARS-CoV-2 variant Alpha it was 609 nM.
